Assay: physchem
Settings: pH 6
In the case of `CC(C)C[C@H](NC(=O)[C@H](C)N)C(=O)N[C@@H](CCC(=O)O)C(=O)N[C@@H](CCC(=O)O)C(=O)N[C@@H](CCCCN)C(=O)N[C@@H](CCCCN)C(=O)NCC(=O)N[C@@H](CC(N)=O)C(=O)N[C@@H](Cc1ccc(O)cc1)C(=O)N[C@H](C(=O)N[C@H](C(=O)N[C@H](C(=O)N[C@@H](CC(=O)O)C(=O)N[C@@H](Cc1c[nH]cn1)C(=O)NCC(=O)N[C@@H](CO)C(=O)N[C@@H](CS)C(=O)N[C@H](C(=O)O)C(C)C)[C@@H](C)O)C(C)C)C(C)C`, the solubility was over 2000 µg/mL. In the case of H-AAAFPSQRTSWEFLQSLVSIKQEKPA-OH, the solubility was under 2000 µg/mL. With H-AALCPASRALEEKKGNYV-OH the solubility was over 2000 µg/mL. In the case of H-AASAAAFPSQRTSWEFLQSLVSIKQEK-OH, the solubility was over 2000 µg/mL. Work on H-AAVDSVTIPPAQCYLSLLHLQQRRMQSA-OH yielded a solubility of over 2000 µg/mL. Compound H-AAVRPEQRPAARGSRV-OH has a solubility of over 2000 µg/mL. With H-ADRRRQRSTFRAVLHFVEGGESEE-OH the solubility was under 2000 µg/mL. H-AESAQRQGPNGGGEQSANEF-OH gave a solubility of over 2000 µg/mL. Work on H-AHRQGEKQHLLPVFSRLALRLPWRHSVQL-OH yielded a solubility of over 2000 µg/mL. For H-AIISSLFVSYFLYR-OH, the solubility was under 2000 µg/mL. Compound H-AIYHKYYHYLYSYYLPASLKNMVD-OH has a solubility of under 2000 µg/mL. H-ALCPASRALEEKKGNYVV-OH showed a solubility of over 2000 µg/mL. For H-ALLQNVELRRNVLVSPTPLAN-OH, the solubility was over 2000 µg/mL. For H-ALSLTPGLRIGPSGLFLVFLAESAVDKGHPNRS-OH, the solubility was over 2000 µg/mL. H-AQRKLYQDVMHENFTNLLSVGHQP-OH showed a solubility of over 2000 µg/mL. Work on H-ARLQSKEYPVIFKSIMRQRLISPQL-OH yielded a solubility of over 2000 µg/mL. For H-ASATEPANDSLFSPGAANLFSTYLAR-OH, the solubility was over 2000 µg/mL. With H-AVGATKVPRNQDWLGVSRQL-OH the solubility was over 2000 µg/mL. Work on H-DASDFLPDTQLFPHFTELLLPLDPLEGSSV-OH yielded a solubility of over 2000 µg/mL. H-DATFSDGSLGQLVKNTSATYALS-OH showed a solubility of over 2000 µg/mL. With H-DDNGNILDPDKTSTIALFKAHEV-OH the solubility was over 2000 µg/mL. Compound H-DDSLHIQATYISGPVLAGSGD-OH has a solubility of over 2000 µg/mL. For H-DEQGREAELARSGPSAAGPVRLKPGLVPGL-OH, the solubility was over 2000 µg/mL. In the case of H-DGAWPVLLDKFVEWYKDKQMS-OH, the solubility was over 2000 µg/mL. For H-DGGRQHSGPRRHSGAGPKPSSSEWAVCWAP-OH, the solubility was over 2000 µg/mL. H-DGVSEEFWLVDLLPSTHYT-OH showed a solubility of under 2000 µg/mL. With H-DHAPEFPAREMLLKYQKLLCQERYFL-OH the solubility was under 2000 µg/mL. Work on H-DHAPEFPAREMLLKYQKLLSQER-OH yielded a solubility of over 2000 µg/mL. In the case of H-DHVSIILLSATIPNALEFADWIG-OH, the solubility was under 2000 µg/mL. H-DKGHQFHVHPLLHSGDDLDP-OH gave a solubility of over 2000 µg/mL. H-DLSYVSDQNGGVPDQILLHLRPTED-OH showed a solubility of over 2000 µg/mL. In the case of H-DNHLRRNRLIVVDLFHGQL-OH, the solubility was over 2000 µg/mL. With H-DPDVGVNSLQQYYLSPDLHFSLI-OH the solubility was under 2000 µg/mL. For H-DPLMTCSEPERLTEILFQRAELE-OH, the solubility was under 2000 µg/mL. Work on H-DRSVLAKKLKFVTLVFRHGDRSPID-OH yielded a solubility of over 2000 µg/mL. Compound H-DSAVDKGHPNRSALSLTPGLRIGPSGLFLVFLA-OH has a solubility of over 2000 µg/mL. With H-DSPAGPRRKECTMALAPNFTANNR-OH the solubility was over 2000 µg/mL. H-DVGVNSLQQYYLSPDLHFSLIQKENLD-OH showed a solubility of under 2000 µg/mL. Compound H-DVTGPHLYSIYLHGSTDKLPYVTMGS-OH has a solubility of over 2000 µg/mL. Work on H-DVTYDGHPVLGSPYTVEASL-OH yielded a solubility of under 2000 µg/mL. Work on H-EAAFSVGATGIITDYPTALRHYLDNHG-OH yielded a solubility of under 2000 µg/mL. With H-EDSDKLFESKAELADHQKF-OH the solubility was over 2000 µg/mL. In the case of H-EDSKYQNLLPFFVGHNMLLVSEE-OH, the solubility was under 2000 µg/mL. In the case of H-EEFNRRVRENPWDTQLWMAFVAFQDE-OH, the solubility was under 2000 µg/mL. Compound H-EIHGKCENMTITSRGTTVTPTKETVSLG-OH has a solubility of over 2000 µg/mL. H-EQGPWQSEGQTWRAAGGRVPVPCPAAGPG-OH showed a solubility of over 2000 µg/mL. With H-ERLSIQNFSKLLNDNIFYMS-OH the solubility was under 2000 µg/mL. Compound H-EVVGGYTWPSGNIYQGYWAQGKR-OH has a solubility of over 2000 µg/mL. For H-EYWKVLDGELEVAPEYPQSTARDWL-OH, the solubility was under 2000 µg/mL. H-FAKGFRESDLNSWPVAPRPLLSV-OH gave a solubility of over 2000 µg/mL. For H-FKMDRQGVTQVLSCLSYISALGMMT-OH, the solubility was under 2000 µg/mL. H-FLLQVPGSPVVSPSA-OH showed a solubility of over 2000 µg/mL.

Source: patent US20190060428A1, “FORMULATIONS FOR NEOPLASIA VACCINES AND METHODS OF PREPARING THEREOF” (The Broad Institue Inc., priority 2015, published 2019)
